From patent EP1048669A1, “CARBAPENEM DERIVATIVES” (priority 1997, dated 1999)
Where a name gives a salt, the structure may show the parent alone. Read-outs that look alike come from different tables or passages of the source.

Key:
[1] = target: T1, Metallo-β-lactamase encoded by plasmid pMS350 (Serratia marcescens, UniProt P52699); experiment: β-Lactamase inhibition test (Nitrocefin substrate); type: biochemical, Pseudomonas aeruginosa GN17203; details: Nitrocefin 37.5 µg/ml, 30°C for 15 minutes, Zn2+ 100 µM, MOPS buffer
T1 construct: made in house
T1 sequence (P52699 19-246): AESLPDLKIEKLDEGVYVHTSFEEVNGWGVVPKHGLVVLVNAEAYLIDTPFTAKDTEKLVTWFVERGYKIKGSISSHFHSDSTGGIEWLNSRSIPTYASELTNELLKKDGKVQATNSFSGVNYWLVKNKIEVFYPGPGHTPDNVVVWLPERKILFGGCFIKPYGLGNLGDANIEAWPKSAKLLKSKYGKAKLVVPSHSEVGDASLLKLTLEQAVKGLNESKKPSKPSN
Procedure: Metallo-β-lactamase encoded by plasmid pMS350 originated from Pseudomonas aeruginosa GN17203 was purified and used for this test. The enzyme previously gave a single protein band on SDS/PAGE (specific activity: 70 U/mg protein). The enzymatic activity (U) was measured by reacting it with 100 µM of imipenem dissolved in 10 mM 3-morpholinopropanesulfonate buffer (pH 7.0) (hereinafter referred to as MOPS buffer) containing 100 µM zinc chloride, and the quantity of enzyme capable of hydrolyzing 1 µM of imipenem per one minute at a reaction temperature of 30°C was defined as 1 U.
As the screening substrate of this test, Nitrocefin®, OXOID) was used. In each well of a 96 well plate, 1 µl of a test agent dissolved in 10 mM MOPS buffer and 25 µl of metallo-β-lactamase preparation (enzymatic activity: 3-6 mU/ml) were mixed, and then 75 µl of 50 µg/ml Nitrocefin® was added and mixed to create a final substrate concentration of 37.5 µg/ml. The enzymic reaction was carried out at 30°C for 15 minutes and followed by measuring the quantity of hydrolyzed Nitrocefin™ at a wavelength of 492 nm by means of a microplate reader. In this screening system, the operation was carried out in the presence of Zn^2+ (100 µM) in order to eliminate the inhibitory effect due to chelating action. […]

[2] = In vivo stability test (TLC bioautography of urine); set-up: species or system rhesus monkey
Procedure: The compound of Example 1 was used as a representative compound, and the compound of Example 139B of Document A was used as a comparative compound. A test agent (10 mg/kg) was intravenously administered to 4-years old male rhesus monkey (body weight 5.48 kg) over a period of 5 minutes. The urine was collected over a period of 0-1 hour and over a period of 1-2 hours, both after the administration. The urine samples were stored at an ice-cooled temperature. A TLC plate (silica gel 60F-254, manufactured by Merck Co.) which had been activated just before use at 120°C for 30 minutes and spotted with 4 µl of each urine sample, was developed with a solvent in a closed vessel (developing solvent: CH3CN/H2O/CH3COOH/25% NH4OH = 45:30:6:2; pH 5.3). After completion of the development, the TLC plate was taken out of the vessel, and dried. An AM-1 medium (manufactured by Difco Co.) containing a test strain (B. subtilis ATCC 12432) was contacted with the silica gel surface of the TLC plate at ambient temperature for 30 minutes. After stripping off the TLC plate, the medium was cultured at 37°C overnight. Rf value of a clear zone formed by the growth inhibition of test strain was determined. As control, the test compound was dissolved in 10 mmol MOPS buffer (pH 7) at the concentration of 250 µg/ml, and 2 µl of this solution was spotted on a TLC plate.

male SD rats = experiment: Toxicity test on the central nervous system (administration to the right ventricle of the brain); type: in vivo; details: observed thirty minutes
Description: A chronic guide cannula was inserted into the right ventricle of the brain of 7-weeks old male SD rats (n = 5) and immobilized with a dental resin. […] After the administration, behavior of the animal was visually examined in an observing cage for thirty minutes.

P. aeruginosa IFO-3445 = experiment: In vitro antibacterial activity, agar plate dilution method (MIC); type: cell-based; details: Pseudomonas aeruginosa, read-out: Minimum growth inhibitory concentrations (MIC)
Procedure: (§1) A Mueller Hinton agar (MH agar) was inoculated with a platinum loop quantity (the quantity of inoculated bacterium: 10^6 CFU/ml) of each test bacterial strain which had been cultured overnight in Mueller Hinton broth. The culture medium contained an antibacterial agent at a varied concentration. After a culture at 37°C for 16 hours, the minimum growth inhibitory concentration (MIC: µg/ml) of the compound of this invention was measured. When MRSA was used as the test strain, a medium containing 2% sodium chloride was used as the test medium in accordance with the above-mentioned agar plate dilution method, and the minimum growth inhibitory concentration (MIC: µg/ml) of the compound of this invention was measured under culture conditions of 35°C, 48 hours.

E. coli NIHJ JC2 = experiment: as above; type: cell-based; details: Escherichia coli, read-out: Minimum growth inhibitory concentrations (MIC)
Procedure: as §1

MRSA BB6294 = experiment: In vitro antibacterial activity, agar plate dilution method (MIC), MRSA conditions; type: cell-based, methicillin-resistant Staphylococcus aureus; details: Staphylococcus aureus, read-out: Minimum growth inhibitory concentrations (MIC)
Procedure: as §1

male ICR mice = experiment: Acute toxicity test (single intravenous administration); type: in vivo; details: observed over five days
Procedure: The compound of Example 24 was used as a representative compound. According to "Explanation Book for GLP Standard and Toxicity Test Guideline" (supervised by Department of Examination, Bureau of Pharmacy, Ministry of Health and Welfare; published by Yakuji Shimpou-sha), a test compound was diluted with distilled water for injection use until the agent concentration reached 60.75 mg/ml and once administered intravenously to the tail vein of 6-weeks old male ICR mice at an administration rate of 1 ml/min. After the administration, the state of death and the general motility were observed over five days.

Pseudomonas aeruginosa = details: especially against Pseudomonas aeruginosa; cited from earlier work
[3] = 400 µg/rat into right ventricle of the brain
[4] = 200 µg/rat into right ventricle of the brain
[5] = mouse, 500 mg/kg intravenously once
[6] = mouse, 1,000 mg/kg intravenously once
[7] = mouse, 1,500 mg/kg intravenously once

C=CCOC(=O)N(C)Cc1ccc([C@H]2C[C@H](SC(C)=O)CN2C(=O)OCC=C)cc1 [Compound of Referential. Ex. 1, (2R,4S)-4-Acetylthio-1-allyloxycarbonyl-2-(4-N-allyloxycarbonyl-N-methylaminomethyl)phenylpyrrolidine]
IC50 [1]: < 100 nM

CNCc1ccc([C@H]2C[C@H](SC3=C(C(=O)O)N4C(=O)[C@H]([C@@H](C)O)[C@H]4[C@H]3C)CN2)cc1.Cl [Example 1, (1R,5S,6S)-2-[(3S,5R)-5-[4-N-methylaminomethylphenyl]-pyrrolidin-3-ylthio]-6-[(R)-1-hydroxyethyl]-1-methyl-1-carbapen-2-em-3-carboxylic acid hydrochloride]
Rf value, Control ([2]; control: test compound in 10 mmol MOPS buffer (pH 7), 250 µg/ml, spotted on TLC plate, clear zone with B. subtilis ATCC 12432): 0.40
Rf value, Accumulated urine during 0-1 hr after administration ([2]; rhesus monkey, 10 mg/kg intravenously, urine 0-1 hr, TLC clear zone with B. subtilis ATCC 12432): 0.40
Rf value, Accumulated urine during 1-2 hrs after administration ([2]; rhesus monkey, 10 mg/kg intravenously, urine 1-2 hrs, TLC clear zone with B. subtilis ATCC 12432): 0.40
Number of convulsed cases (male SD rats; [3]): 0/5
Number of dead cases (male SD rats; [3]): 0/5

C[C@H](N)c1ccc([C@H]2C[C@H](SC3=C(C(=O)O)N4C(=O)[C@H]([C@@H](C)O)[C@H]4[C@H]3C)CN2)cc1 [Example 14, (1R,5S,6S)-2-[(3S,5R)-5-[4-[(1S)-aminoethyl]phenyl]-pyrrolidin-3-ylthio]-6-[(R)-1-hydroxyethyl]-1-methyl-1-carbapen-2-em-3-carboxylic acid hydrochloride]
MIC (P. aeruginosa IFO-3445; IFO3445, 16 h): 0.1 µg/mL
MIC (E. coli NIHJ JC2; NIHJJC2, 16 h): 0.025 µg/mL
MIC (MRSA BB6294; MRSA, 48 h): 3.13 µg/mL
Number of convulsed cases (male SD rats; [4]): 0/5
Number of dead cases (male SD rats; [4]): 0/5

C[C@@H](N)c1ccc([C@H]2C[C@H](SC3=C(C(=O)O)N4C(=O)[C@H]([C@@H](C)O)[C@H]4[C@H]3C)CN2)cc1 [Example 15, (1R,5S,6S)-2-[(3S,5R)-5-[4-[(1R)-aminoethyl]phenyl]-pyrrolidin-3-ylthio]-6-[(R)-1-hydroxyethyl]-1-methyl-1-carbapen-2-em-3-carboxylic acid hydrochloride]
MIC (P. aeruginosa IFO-3445; IFO3445, 16 h): 0.2 µg/mL
MIC (E. coli NIHJ JC2; NIHJJC2, 16 h): 0.025 µg/mL
MIC (MRSA BB6294; MRSA, 48 h): 3.13 µg/mL
Number of convulsed cases (male SD rats; [4]): 0/5
Number of dead cases (male SD rats; [4]): 0/5

C[C@@H](O)[C@H]1C(=O)N2C(C(=O)O)=C(S[C@@H]3CN[C@@H](c4ccc(C(N)CC(N)=O)cc4)C3)[C@H](C)[C@H]12.Cl (stereo partly drawn) [Example 24, (1R,5S,6S)-2-[(3S,5R)-5-[4-(1-amino-2-carbamoylethyl)-phenyl]pyrrolidin-3-ylthio]-6-[(R)-1-hydroxyethyl]-1-methyl-1-carbapen-2-em-3-carboxylic acid hydrochloride]
Motility and general symptoms (male ICR mice; [5]): No abnormality
Number of alive animals (male ICR mice; [5]): 2/2
Motility and general symptoms (male ICR mice; [6]): No abnormality
Number of alive animals (male ICR mice; [6]): 5/5
Motility and general symptoms (male ICR mice; [7]): No abnormality
Number of alive animals (male ICR mice; [7]): 5/5

C[C@@H](O)[C@H]1C(=O)N2C(C(=O)O)=C(S[C@@H]3CN[C@@H](c4csc(CN)c4)C3)[C@H](C)[C@H]12.Cl [Example 32, (1R,5S,6S)-2-[(3S,5R)-5-(2-aminomethyl-4-thienyl)-pyrrolidin-3-ylthio]-6-[(R)-1-hydroxyethyl]-1-methyl-1-carbapen-2-em-3-carboxylic acid hydrochloride]
MIC (P. aeruginosa IFO-3445; IFO3445, P. aeruginosa IFO-3445, MH agar, 10^6 CFU/ml, 37°C for 16 hours): 0.39 µg/mL
MIC (E. coli NIHJ JC2; NIHJJC2, E. coli NIHJ JC2, MH agar, 10^6 CFU/ml, 37°C for 16 hours): 0.025 µg/mL
MIC (MRSA BB6294; MRSA BB6294, medium containing 2% sodium chloride, 35°C, 48 hours): 3.13 µg/mL

C[C@@H](O)[C@H]1C(=O)N2C(C(=O)O)=C(SCCNC=N)C[C@H]12.O [Imipenem, (5R,6S)-3-[2-(formimidoylamino)-ethylthio]-6-[(R)-1-hydroxyethyl]-7-oxo-1-azabicyclo[3.2.0]hepta-2-ene-2-carboxylic acid monohydrate]
enhanced antibacterial activity compared to the parent antibiotic, thienamycin (Pseudomonas aeruginosa): 2-4 times
